Measured values taken from patent US10538555B2, “Macrocyclic inhibitors of the PD-1/PD-L1 and CD80(B7-1)/PD-L1 protein/protein interactions” (BRISTOL-MYERS SQUIBB COMPANY, priority 2014, dated 2020).
*1 amine or outer side, *2 acyl side, *3 side chain or, on linkers, in order; H or OH if unused. Where a SMILES comes first, the peptide text is derived from it. Bridges are numbered along the chain shown (N, C = ends). [ ]: non-standard residue; d: D form. ξ: configuration not given here. Trp(1-CH2COOH) = N[C@@H](Cc1cn(CC(=O)O)c2ccccc12)C(=O)O; Trp(βS-Me) = C[C@@H](c1c[nH]c2ccccc12)[C@H](N)C(=O)O; Phe(3,4,5-F3) = N[C@@H](Cc1cc(F)c(F)c(F)c1)C(=O)O; Phe(3,4-F2) = N[C@@H](Cc1ccc(F)c(F)c1)C(=O)O; d(cisHyp) = O=C(O)[C@H]1C[C@@H](O)CN1; Bta = N[C@@H](Cc1csc2ccccc12)C(=O)O; NMeY = CN[C@@H](Cc1ccc(O)cc1)C(=O)O; Hyp = O=C(O)[C@@H]1C[C@@H](O)CN1; NMeF = CN[C@@H](Cc1ccccc1)C(=O)O; X1 = O=C([C@H]1COCCN1[*:1])[*:2]; dHyp = O=C(O)[C@H]1C[C@H](O)CN1; NMehSer = CN[C@@H](CCO)C(=O)O; NMeNle = CCCC[C@H](NC)C(=O)O; hSer = N[C@@H](CCO)C(=O)O; NMeA = CN[C@@H](C)C(=O)O; Orn = NCCC[C@H](N)C(=O)O; dThz = O=C(O)[C@H]1CSCN1; Dab = NCC[C@H](N)C(=O)O; Dap = NC[C@H](N)C(=O)O; ξC = NC(CS)C(=O)O

The molecules below were run against T1, Human PD-L1/PD-1 (Homo sapiens, UniProt Q9NZQ7) (assay: HTRF Human PD-L1/PD-1 binding assay (PD-1-Ig/PD-L1-His)). Conditions: PD-L1-His 10 nM, PD-1-Ig 20 nM; class symbol; read-out: HTRF Human PD-L1/PD-1 Binding Assay IC50 Range.
T1 construct: TVMV protease cleavage site (C); made in house; host or cells: HEK293T cells
How it was run: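 Inhibitors were preincubated 15 min with human PD-L1(18-239)-His (10 nM final), then PD-1(25-167)-Ig (20 nM final) was added for 15 min in dPBS/0.1% BSA/0.05% Tween-20. Eu-cryptate anti-Ig (1 nM) and APC anti-His (20 nM) were added; 665/620 nm ratio read after 30 min.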

T1 sequence (Q9NZQ7 with tags, fused parts or gaps): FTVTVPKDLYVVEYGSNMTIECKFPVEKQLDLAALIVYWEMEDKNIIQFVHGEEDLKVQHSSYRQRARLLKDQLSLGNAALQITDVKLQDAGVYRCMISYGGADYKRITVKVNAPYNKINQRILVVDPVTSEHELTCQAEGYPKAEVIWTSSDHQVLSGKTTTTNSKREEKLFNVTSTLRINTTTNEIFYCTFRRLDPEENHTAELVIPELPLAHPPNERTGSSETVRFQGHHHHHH

Compound | IC50 [nM]
CCCC[C@H]1C(=O)N(C)[C@@H](CCCC)C(=O)N[C@@H](CCC(=O)O)C(=O)N[C@H](C(=O)NCC(N)=O)CSCC(=O)N[C@@H](Cc2ccc(OC)cc2)C(=O)N(C)[C@@H](C)C(=O)N[C@@H](CC(=O)O)C(=O)N2CCC[C@H]2C(=O)N[C@@H](CN)C(=O)N[C@@H](CCCCN)C(=O)N2C[C@H](O)C[C@H]2C(=O)N[C@@H](Cc2c[nH]c3ccccc23)C(=O)N[C@@H](CCN)C(=O)N[C@@H](Cc2c[nH]c3ccccc23)C(=O)N1C [Example 7122] ({CH2CO}-Y(Me)[NMeA]DP[Dap]K[Hyp]W[Dab]W[NMeNle][NMeNle]ECG-NH2; thioether N-14) | 1 to 9.9
CCCC[C@H]1C(=O)N2CSC[C@@H]2C(=O)N[C@@H](CC(N)=O)C(=O)N[C@@H](C(C)C)C(=O)N(C)[C@@H](Cc2ccccc2)C(=O)N[C@@H](Cc2ccc(O)cc2)C(=O)N2CCC[C@@H]2C(=O)N[C@@H](Cc2c[nH]c3ccccc23)C(=O)N[C@@H](Cc2ccc(O)cc2)C(=O)N[C@@H](CC(C)C)C(=O)N[C@H](C(=O)NCC(N)=O)CSCC(=O)N[C@@H](Cc2ccccc2)C(=O)N(C)[C@@H](Cc2ccccc2)C(=O)N1C [Example 10073] ({CH2CO}-F[NMeF][NMeNle][dThz]NV[NMeF]Y[dP]WYLCG-NH2; thioether N-13) | 10 to 99.9
CCCC[C@H]1C(=O)N(C)[C@@H](CCCC)C(=O)N[C@@H](CCC(=O)O)C(=O)N[C@H](C(=O)NCC(N)=O)CSCC(=O)N[C@@H](Cc2ccc(O)cc2)C(=O)N(C)[C@@H](C)C(=O)N[C@@H](CC(=O)O)C(=O)N2CCC[C@H]2C(=O)N[C@@H](CN)C(=O)N[C@@H](CCC(N)=O)C(=O)N2C[C@H](O)C[C@H]2C(=O)N[C@@H](Cc2c[nH]c3ccccc23)C(=O)N[C@@H](CO)C(=O)N[C@@H](Cc2cn(CC(=O)O)c3ccccc23)C(=O)N1C [Example 6289] ({CH2CO}-Y[NMeA]DP[Dap]Q[Hyp]WS[Trp(1-CH2COOH)][NMeNle][NMeNle]ECG-NH2; thioether N-14) | 1 to 9.9
COCC[C@H]1C(=O)N2C[C@@H](O)C[C@@H]2C(=O)N[C@@H](CC(=O)O)C(=O)N[C@@H](C(C)C)C(=O)N(C)[C@@H](Cc2ccccc2)C(=O)N[C@@H](Cc2ccc(O)cc2)C(=O)N2C[C@@H](O)C[C@@H]2C(=O)N[C@@H](Cc2c[nH]c3ccccc23)C(=O)N[C@@H](Cc2ccc(O)cc2)C(=O)N[C@@H](CCCN)C(=O)N[C@H](C(=O)NCC(N)=O)CSCC(=O)N[C@@H](Cc2ccc(F)c(F)c2)C(=O)N(C)[C@@H](Cc2ccccc2)C(=O)N1C [Example 9237] ({CH2CO}-[Phe(3,4-F2)][NMeF][NMehSer](Me)[dHyp]DV[NMeF]Y[dHyp]WY[Orn]CG-NH2; thioether N-13) | 1 to 9.9
CCCC[C@H]1C(=O)N2C[C@H](O)C[C@@H]2C(=O)N[C@@H](CC(=O)O)C(=O)N[C@@H](C(C)C)C(=O)N(C)[C@@H](Cc2ccccc2)C(=O)N[C@@H](CCC(N)=O)C(=O)N2C[C@H](O)C[C@@H]2C(=O)N[C@@H](Cc2c[nH]c3ccccc23)C(=O)N[C@@H](Cc2ccc(O)cc2)C(=O)N[C@@H](CC(N)=O)C(=O)N[C@H](C(=O)NCC(N)=O)CSCC(=O)N[C@@H](Cc2cc(F)c(F)c(F)c2)C(=O)N(C)[C@@H](Cc2ccccc2)C(=O)N1C [Example 9360] ({CH2CO}-[Phe(3,4,5-F3)][NMeF][NMeNle][d(cisHyp)]DV[NMeF]Q[d(cisHyp)]WYNCG-NH2; thioether N-13) | 1 to 9.9
CCCC[C@H]1C(=O)N(C)[C@@H](CCCC)C(=O)N[C@@H](CCCNC(=N)N)C(=O)NC(C(=O)NCC(N)=O)CSCC(=O)N[C@@H](Cc2ccc(O)cc2)C(=O)N(C)[C@@H](C)C(=O)N[C@@H](CC(N)=O)C(=O)N2CCC[C@H]2C(=O)N[C@@H](CO)C(=O)N[C@@H](CCO)C(=O)N2CCC[C@H]2C(=O)N[C@@H](Cc2c[nH]c3ccccc23)C(=O)N[C@@H](CO)C(=O)N[C@@H](Cc2csc3ccccc23)C(=O)N1C (stereo partly drawn) [Example 10025] ({CH2CO}-Y[NMeA]NPS[hSer]PWS[Bta][NMeNle][NMeNle]R[ξC]G-NH2; thioether N-14) | 1 to 9.9
CCCC[C@H]1C(=O)N2C[C@H](O)C[C@@H]2C(=O)N[C@@H](CC(=O)O)C(=O)N[C@@H](C(C)C)C(=O)N(C)[C@@H](Cc2ccccc2)C(=O)N[C@@H](CC(=O)O)C(=O)N2C[C@H](O)C[C@@H]2C(=O)N[C@@H](Cc2c[nH]c3ccccc23)C(=O)N[C@@H](Cc2ccc(O)cc2)C(=O)N[C@@H](CCC(=O)O)C(=O)N[C@H](C(=O)NCC(N)=O)CSCC(=O)N[C@@H](Cc2ccc(F)c(F)c2)C(=O)N(C)[C@@H](Cc2ccccc2)C(=O)N1C [Example 9314] ({CH2CO}-[Phe(3,4-F2)][NMeF][NMeNle][d(cisHyp)]DV[NMeF]D[d(cisHyp)]WYECG-NH2; thioether N-13) | 1 to 9.9
CCCC[C@H]1C(=O)N2CCC[C@@H]2C(=O)N[C@@H](CC(=O)O)C(=O)N[C@@H](C(C)C)C(=O)N(C)[C@@H](Cc2ccccc2)C(=O)N[C@@H](CCC(=O)O)C(=O)N2C[C@@H](O)C[C@@H]2C(=O)N[C@@H](Cc2c[nH]c3ccccc23)C(=O)N[C@@H](Cc2ccc(O)cc2)C(=O)N[C@@H](CC(C)C)C(=O)N[C@H](C(=O)NCC(N)=O)CSCC(=O)N[C@@H](Cc2cc(F)c(F)c(F)c2)C(=O)N(C)[C@@H](Cc2ccccc2)C(=O)N1C [Example 9285] ({CH2CO}-[Phe(3,4,5-F3)][NMeF][NMeNle][dP]DV[NMeF]E[dHyp]WYLCG-NH2; thioether N-13) | 1 to 9.9

The remaining lines, values ahead:

IC50 [nM] | Compound
10 to 99.9 | CCCC[C@H]1C(=O)N2CCC[C@@H]2C(=O)N[C@@H](CC(=O)O)C(=O)N[C@@H](C(C)C)C(=O)N(C)[C@@H](Cc2ccccc2)C(=O)N[C@@H](CCN)C(=O)N2CCOC[C@@H]2C(=O)N[C@@H](Cc2c[nH]c3ccccc23)C(=O)N[C@@H](Cc2ccc(O)cc2)C(=O)N[C@@H](CC(C)C)C(=O)N[C@H](C(=O)NCC(N)=O)CSCC(=O)N[C@@H](Cc2cc(F)c(F)c(F)c2)C(=O)N(C)[C@@H](Cc2ccc(O)cc2)C(=O)N1C [Example 10622] ({CH2CO}-[Phe(3,4,5-F3)][NMeY][NMeNle][dP]DV[NMeF][Dab][X1]WYLCG-NH2; thioether N-13)
1 to 9.9 | CCCC[C@H]1C(=O)N(C)[C@@H](CCCC)C(=O)N[C@@H](CCC(=O)O)C(=O)N[C@H](C(=O)NCC(N)=O)CSCC(=O)N[C@@H](Cc2ccc(O)cc2)C(=O)N(C)[C@@H](C)C(=O)N[C@@H](CC(=O)O)C(=O)N2CCC[C@H]2C(=O)N[C@@H](Cc2c[nH]cn2)C(=O)N[C@@H](CCC(N)=O)C(=O)N2C[C@H](O)C[C@H]2C(=O)N[C@@H]([C@@H](C)c2c[nH]c3ccccc23)C(=O)N[C@@H](CO)C(=O)N[C@@H](Cc2c[nH]c3ccccc23)C(=O)N1C [Example 10552] ({CH2CO}-Y[NMeA]DPHQ[Hyp][Trp(βS-Me)]SW[NMeNle][NMeNle]ECG-NH2; thioether N-14)
10 to 99.9 | CCCC[C@H]1C(=O)N2CCC[C@@H]2C(=O)N[C@@H](CC(=O)O)C(=O)N[C@@H](C(C)C)C(=O)N(C)[C@@H](Cc2ccccc2)C(=O)N[C@@H](CC(=O)O)C(=O)N2C[C@H](O)C[C@@H]2C(=O)N[C@@H](Cc2c[nH]c3ccccc23)C(=O)N[C@@H](Cc2ccc(O)cc2)C(=O)N[C@@H](CCO)C(=O)N[C@H](C(=O)NCC(N)=O)CSCC(=O)N[C@@H](Cc2cc(F)c(F)c(F)c2)C(=O)N(C)[C@@H](Cc2ccccc2)C(=O)N1C [Example 10172] ({CH2CO}-[Phe(3,4,5-F3)][NMeF][NMeNle][dP]DV[NMeF]D[d(cisHyp)]WY[hSer]CG-NH2; thioether N-13)
1 to 9.9 | CCCC[C@H]1C(=O)N2CCC[C@@H]2C(=O)N[C@@H](CC(=O)O)C(=O)N[C@@H](C(C)C)C(=O)N(C)[C@@H](Cc2ccccc2)C(=O)N[C@@H](Cc2ccc(O)cc2)C(=O)N2CCC[C@@H]2C(=O)N[C@@H](Cc2c[nH]c3ccccc23)C(=O)N[C@@H](Cc2ccc(O)cc2)C(=O)N[C@@H](CCCCN)C(=O)N[C@H](C(=O)NCC(N)=O)CSCC(=O)N[C@@H](Cc2cc(F)c(F)c(F)c2)C(=O)N(C)[C@@H](Cc2ccccc2)C(=O)N1C [Example 10096] ({CH2CO}-[Phe(3,4,5-F3)][NMeF][NMeNle][dP]DV[NMeF]Y[dP]WYKCG-NH2; thioether N-13)
10 to 99.9 | CCCC[C@H]1C(=O)N2CCC[C@@H]2C(=O)N[C@@H](CC(=O)O)C(=O)N[C@@H](C(C)C)C(=O)N(C)[C@@H](Cc2ccccc2)C(=O)N[C@@H](CCC(=O)O)C(=O)N2C[C@H](O)C[C@@H]2C(=O)N[C@@H](Cc2c[nH]c3ccccc23)C(=O)N[C@@H](Cc2ccc(O)cc2)C(=O)N[C@@H](CCC(N)=O)C(=O)N[C@H](C(=O)NCC(N)=O)CSCC(=O)N[C@@H](Cc2cc(F)c(F)c(F)c2)C(=O)N(C)[C@@H](Cc2ccc(O)cc2)C(=O)N1C [Example 10631] ({CH2CO}-[Phe(3,4,5-F3)][NMeY][NMeNle][dP]DV[NMeF]E[d(cisHyp)]WYQCG-NH2; thioether N-13)
1 to 9.9 | CCCC[C@H]1C(=O)N(C)[C@@H](CCCC)C(=O)N[C@@H](CC(C)C)C(=O)N[C@H](C(N)=O)CSCC(=O)N[C@@H](Cc2ccc(O)cc2)C(=O)N(C)[C@@H](C)C(=O)N[C@@H](CC(N)=O)C(=O)N2CCC[C@H]2C(=O)N[C@@H](CN)C(=O)N[C@@H](CC(C)C)C(=O)N2C[C@H](O)C[C@H]2C(=O)N[C@@H]([C@@H](C)c2c[nH]c3ccccc23)C(=O)N[C@@H](CO)C(=O)N[C@@H](Cc2c[nH]c3ccccc23)C(=O)N1C [Example 10532] ({CH2CO}-Y[NMeA]NP[Dap]L[Hyp][Trp(βS-Me)]SW[NMeNle][NMeNle]LC-NH2; thioether N-14)

Same assay, conditions: PD-L1-His 10 nM, PD-1-Ig 20 nM; read-out: HTRF Human PD-L1/PD-1 Binding Assay IC50

IC50 [nM] | Compound
2.5 | CCCC[C@H]1C(=O)N2CCC[C@@H]2C(=O)N[C@@H](CC(=O)O)C(=O)N[C@@H](C(C)C)C(=O)N(C)[C@@H](Cc2ccccc2)C(=O)N[C@@H](CC(=O)O)C(=O)N2CSC[C@@H]2C(=O)N[C@@H](Cc2c[nH]c3ccccc23)C(=O)N[C@@H](Cc2ccc(O)cc2)C(=O)N[C@@H](CC(C)C)C(=O)N[C@H](C(=O)NCC(N)=O)CSCC(=O)N[C@@H](Cc2cc(F)c(F)c(F)c2)C(=O)N(C)[C@@H](Cc2ccccc2)C(=O)N1C [Example 10091] ({CH2CO}-[Phe(3,4,5-F3)][NMeF][NMeNle][dP]DV[NMeF]D[dThz]WYLCG-NH2; thioether N-13)
